Reference: patent US8999359B2, “Composition that prevents damage to trees by harmful insects and a prevention method thereof” (Syngenta Crop Protection, Inc., priority 2004, dated 2015)

What was measured:
Type in all cases: in vivo
Fall Webworm Larva = experiment: Insecticidal activity test on fall webworm larva (spray)
Source text: 3. Insecticidal Activity Test on Fall Webworm Larva
The progress of the mortality of fall webworm larva was investigated after uniformly spraying feed trees (cherry) and fall webworm larva with spraying solutions at prescribed concentrations using a sprayer.

Pine Caterpillar Larva = experiment: Insecticidal activity test on pine caterpillar larva (spray)
Source text: 2. Insecticidal Activity Test on Pine Caterpillar Larva
The mortality of pine caterpillar larva was investigated after uniformly spraying pine feed trees and pine caterpillar larva with spraying solutions at prescribed concentrations using a sprayer.

[1] = tested on: Adult Japanese Pine Sawyer; experiment: Insecticidal activity test on Japanese pine sawyer (sprayed pine feed trees)
Source text: 1. Insecticidal Activity Test on Japanese Pine Sawyer
After uniformly spraying pine feed trees with spraying solutions at prescribed concentrations using a sprayer, adult Japanese pine sawyers were used in testing to investigate the progress of their mortality and degree of infestation.

CN1COCN(Cc2cnc(Cl)s2)/C1=N\[N+](=O)[O-] [Thiamethoxam, thiamethoxam]
Mortality (%) After 1 day (Fall Webworm Larva; spraying solution 50 ppm): 0%
Mortality (%) After 3 days (Fall Webworm Larva; spraying solution 50 ppm): 30%
Mortality (%) After 7 days (Fall Webworm Larva; spraying solution 50 ppm): 50%
Mortality (%) After 1 day (Fall Webworm Larva; spraying solution 100 ppm): 20%
Mortality (%) After 3 days (Fall Webworm Larva; spraying solution 100 ppm): 80%
Mortality (%) After 7 days (Fall Webworm Larva; spraying solution 100 ppm): 80%
Mortality (%) After 1 day (Fall Webworm Larva; spraying solution 200 ppm): 30%
Mortality (%) After 3 days (Fall Webworm Larva; spraying solution 200 ppm): 90%
Mortality (%) After 7 days (Fall Webworm Larva; spraying solution 200 ppm): 100%
Mortality (%) After 1 day (Fall Webworm Larva; spraying solution 300 ppm): 80%
Mortality (%) After 3 days (Fall Webworm Larva; spraying solution 300 ppm): 100%
Mortality (%) After 1 day (Pine Caterpillar Larva; spraying solution 20 ppm): 10%
Mortality (%) After 3 days (Pine Caterpillar Larva; spraying solution 20 ppm): 40%
Mortality (%) After 7 days (Pine Caterpillar Larva; spraying solution 20 ppm): 50%
Mortality (%) After 1 day (Pine Caterpillar Larva; spraying solution 50 ppm): 20%
Mortality (%) After 3 days (Pine Caterpillar Larva; spraying solution 50 ppm): 60%
Mortality (%) After 7 days (Pine Caterpillar Larva; spraying solution 50 ppm): 80%
Mortality (%) After 1 day (Pine Caterpillar Larva; spraying solution 100 ppm): 50%
Mortality (%) After 3 days (Pine Caterpillar Larva; spraying solution 100 ppm): 80%
Mortality (%) After 7 days (Pine Caterpillar Larva; spraying solution 100 ppm): 100%
Mortality (%) After 1 day (Pine Caterpillar Larva; spraying solution 200 ppm): 80%
Mortality (%) After 3 days (Pine Caterpillar Larva; spraying solution 200 ppm): 100%
Average infested area (cm2) ([1]; spraying solution 5 ppm): 1.8 cm2
Mortality (%) After 1 day ([1]; spraying solution 5 ppm): 10%
Mortality (%) After 3 days ([1]; spraying solution 5 ppm): 60%
Mortality (%) After 7 days ([1]; spraying solution 5 ppm): 100%
Average infested area (cm2) ([1]; spraying solution 10 ppm): 0.5 cm2
Mortality (%) After 1 day ([1]; spraying solution 10 ppm): 70%
Mortality (%) After 3 days ([1]; spraying solution 10 ppm): 80%
Mortality (%) After 7 days ([1]; spraying solution 10 ppm): 100%
Average infested area (cm2) ([1]; spraying solution 20 ppm): 0.4 cm2
Mortality (%) After 1 day ([1]; spraying solution 20 ppm): 80%
Mortality (%) After 3 days ([1]; spraying solution 20 ppm): 100%
Average infested area (cm2) ([1]; spraying solution 40 ppm): 0.3 cm2
Mortality (%) After 1 day ([1]; spraying solution 40 ppm): 100%

COP(=S)(OC)Oc1ccc([N+](=O)[O-])c(C)c1 [Fenitrothion, fenitrothion]
Mortality (%) After 1 day (Fall Webworm Larva; spraying solution 100 ppm): 0%
Mortality (%) After 3 days (Fall Webworm Larva; spraying solution 100 ppm): 10%
Mortality (%) After 7 days (Fall Webworm Larva; spraying solution 100 ppm): 20%
Mortality (%) After 1 day (Fall Webworm Larva; spraying solution 200 ppm): 30%
Mortality (%) After 3 days (Fall Webworm Larva; spraying solution 200 ppm): 60%
Mortality (%) After 7 days (Fall Webworm Larva; spraying solution 200 ppm): 70%
Mortality (%) After 1 day (Fall Webworm Larva; spraying solution 500 ppm): 80%
Mortality (%) After 3 days (Fall Webworm Larva; spraying solution 500 ppm): 100%
Mortality (%) After 1 day (Fall Webworm Larva; spraying solution 1000 ppm): 100%
Mortality (%) After 1 day (Pine Caterpillar Larva; spraying solution 100 ppm): 10%
Mortality (%) After 3 days (Pine Caterpillar Larva; spraying solution 100 ppm): 10%
Mortality (%) After 7 days (Pine Caterpillar Larva; spraying solution 100 ppm): 20%
Mortality (%) After 1 day (Pine Caterpillar Larva; spraying solution 200 ppm): 30%
Mortality (%) After 3 days (Pine Caterpillar Larva; spraying solution 200 ppm): 60%
Mortality (%) After 7 days (Pine Caterpillar Larva; spraying solution 200 ppm): 60%
Mortality (%) After 1 day (Pine Caterpillar Larva; spraying solution 500 ppm): 80%
Mortality (%) After 3 days (Pine Caterpillar Larva; spraying solution 500 ppm): 100%
Mortality (%) After 1 day (Pine Caterpillar Larva; spraying solution 1000 ppm): 100%
Average infested area (cm2) ([1]; spraying solution 5 ppm): 23.3 cm2
Mortality (%) After 1 day ([1]; spraying solution 5 ppm): 10%
Mortality (%) After 3 days ([1]; spraying solution 5 ppm): 10%
Mortality (%) After 7 days ([1]; spraying solution 5 ppm): 10%
Average infested area (cm2) ([1]; spraying solution 10 ppm): 8.6 cm2
Mortality (%) After 1 day ([1]; spraying solution 10 ppm): 0%
Mortality (%) After 3 days ([1]; spraying solution 10 ppm): 50%
Mortality (%) After 7 days ([1]; spraying solution 10 ppm): 80%
Average infested area (cm2) ([1]; spraying solution 20 ppm): 2.4 cm2
Mortality (%) After 1 day ([1]; spraying solution 20 ppm): 20%
Mortality (%) After 3 days ([1]; spraying solution 20 ppm): 70%
Mortality (%) After 7 days ([1]; spraying solution 20 ppm): 100%
Average infested area (cm2) ([1]; spraying solution 40 ppm): 1.6 cm2
Mortality (%) After 1 day ([1]; spraying solution 40 ppm): 90%
Mortality (%) After 3 days ([1]; spraying solution 40 ppm): 100%
